Laboratory results as given in patent publication US20240115654A1, “INTRAVENOUS ADMINISTRATION OF ENGINEERED ANTIMICROBIAL AMPHIPHILIC PEPTIDES” (priority 2021, published 2024).
Converted amounts (≈) assume the structure as drawn. Peptide text beside a SMILES is read from it.

Columns and labels:
Assay type in all cases: cell-based
[1] = tested on: Streptococcus pneumoniae ATCC 49619 (QC); conditions: ATCC 49619
Method: (§1) Each peptide was formulated in PBS buffer prior to testing. Peptides of SEQ ID NO:5 and SEQ ID NO:8 were brought up in 100% DMSO with 0.002% polysorbate-80 at 1.28 mg/mL (40× the highest final test concentration of 32 mcg/mL). Final test concentration of DMSO was 2.5% in the assay at the first dilution for those two compounds.
(§2) Mueller Hinton II broth (MHB II; BD; Lot Nos. 6258541 and 7143896) was used for MIC testing of aerobic organisms. 0.002% polysorbate 80 (P80) was added to the test medium.
(§3) MIC values were determined using a broth microdilution procedure described by CLSI (1, 3). Automated liquid handlers (Multidrop 384, Labsystems, Helsinki, Finland; Biomek 2000 and Biomek FX, Beckman Coulter, Fullerton CA) were used to conduct serial dilutions and liquid transfers.
(§4) To prepare the drug mother plates, which would provide the serial peptide dilutions for the replicate daughter plates, the wells of columns 2-12 of standard 96-well microdilution plates (Costar 3795) were filled with 150 μl of the designated diluent for each row of peptide. The test articles and comparator compounds (300 μl at 40× the highest concentration to be tested) were dispensed into the appropriate wells in column 1. The Biomek 2000 was then used to make 2-fold serial dilutions in the mother plates from column 1 through column 11. The wells of Column 12 contained no drug and served as the organism growth control wells for the assay.
(§5) The daughter plates were loaded with 185 μL per well of MHB II using the Multidrop 384. The daughter plates were completed on the Biomek FX instrument which transferred 5 uL of peptide solution from each well of a mother plate to the corresponding well of each daughter plate in a single step. A standardized inoculum of each test organism was prepared per CLSI methods. The inoculum for each organism was dispensed into sterile reservoirs divided by length (Beckman Coulter), and the Biomek 2000 was used to inoculate the plates. Daughter plates were placed on the Biomek 2000 work surface in reverse orientation so that inoculation took place from low to high drug concentration. The plates were then inoculated with 10 μL of the inoculum resulting in a final cell density of approximately 5×10^5 CFU/mL, per well.
(§6) Plates were stacked 3-4 high, covered with a lid on the top plate, placed in plastic bags, and incubated at 35° C. for 16 to 20 hrs. Following incubation, the microplates were removed from the incubator and viewed from the bottom using a plate viewer. […] The MIC was read and recorded as the lowest concentration of peptide that inhibited visible growth of the organism.

[2] = tested on: Staphylococcus aureus ATCC 29213 (MSSA; QC); conditions: ATCC 29213
Method: as §1, §2, §3, §4, §5, §6

[3] = tested on: Enterococcus faecalis ATCC 29212 (VSE; QC); conditions: ATCC 29212
Method: as §1, §2, §3, §4, §5, §6

[4] = tested on: Enterococcus faecalis ATCC 700802 (V583 VRE); conditions: ATCC 700802
Method: as §1, §2, §3, §4, §5, §6

[5] = tested on: Klebsiella pneumoniae ATCC BAA-1705 (KPC); conditions: ATCC BAA-1705
Method: as §1, §2, §3, §4, §5, §6

[6] = tested on: Escherichia coli ATCC 35218 (ESBL); conditions: ATCC 35218
Method: as §1, §2, §3, §4, §5, §6

[7] = tested on: Staphylococcus aureus NRS382 (USA100; HA-MRSA); conditions: USA100
Method: as §1, §2, §3, §4, §5, §6

[8] = tested on: Enterococcus faecium ATCC 51559 (VRE); conditions: ATCC 51559
Method: as §1, §2, §3, §4, §5, §6

[9] = tested on: Pseudomonas aeruginosa ATCC BAA-2109 (MDR); conditions: ATCC BAA-2109
Method: as §1, §2, §3, §4, §5, §6

[10] = tested on: Pseudomonas aeruginosa ATCC 27853 (non-MDR; QC); conditions: ATCC 27853
Method: as §1, §2, §3, §4, §5, §6

[11] = tested on: Streptococcus pyogenes ATCC 49399; conditions: ATCC 49399
Method: as §1, §2, §3, §4, §5, §6

[12] = tested on: Staphylococcus aureus ATCC 43300 (MRSA); conditions: ATCC 43300
Method: as §1, §2, §3, §4, §5, §6

[13] = tested on: Acinetobacter baumannii ATCC 19606 (non-MDR); conditions: ATCC 19606
Method: as §1, §2, §3, §4, §5, §6

[14] = tested on: Escherichia coli ATCC 25922 (QC); conditions: ATCC 25922
Method: as §1, §2, §3, §4, §5, §6

[15] = tested on: Escherichia coli ATCC BAA-2471 (NDM-1); conditions: ATCC BAA-2471
Method: as §1, §2, §3, §4, §5, §6

[16] = tested on: Acinetobacter baumannii ATCC BAA-1797 (MDR); conditions: ATCC BAA-1797
Method: as §1, §2, §3, §4, §5, §6

MIC [1]	MIC [2]	MIC [3]	MIC [4]	MIC [5]	MIC [6]	MIC [7]	MIC [8]	MIC [9]	MIC [10]	MIC [11]	MIC [12]	MIC [13]	MIC [14]	MIC [15]	MIC [16]	Structure (SMILES)
32 µg/mL (≈ 10.5 µM)	8 µg/mL (≈ 2.63 µM)	32 µg/mL (≈ 10.5 µM)	>32 µg/mL	32 µg/mL (≈ 10.5 µM)	4 µg/mL (≈ 1.32 µM)	8 µg/mL (≈ 2.63 µM)	4 µg/mL (≈ 1.32 µM)	2 µg/mL (≈ 0.658 µM)	4 µg/mL (≈ 1.32 µM)	16 µg/mL (≈ 5.26 µM)	8 µg/mL (≈ 2.63 µM)	8 µg/mL (≈ 2.63 µM)	4 µg/mL (≈ 1.32 µM)	4 µg/mL (≈ 1.32 µM)	–	CC[C@H](C)[C@H](N)C(=O)N[C@@H](CCCNC(=N)N)C(=O)N[C@@H](CCCNC(=N)N)C(=O)N[C@@H](CCCNC(=N)N)C(=O)N[C@H](C(=O)N[C@@H](CCCNC(=N)N)C(=O)N[C@@H](CCCNC(=N)N)C(=O)N[C@H](C(=O)N[C@@H](CCCNC(=N)N)C(=O)N[C@@H](CCCNC(=N)N)C(=O)N[C@@H](CCCNC(=N)N)C(=O)N[C@H](C(=O)N[C@@H](CCCNC(=N)N)C(=O)N[C@@H](CCCNC(=N)N)C(=O)N[C@H](C(=O)N[C@@H](CCCNC(=N)N)C(=O)N[C@@H](CCCNC(=N)N)C(=O)N[C@@H](CCCNC(=N)N)C(=O)N[C@H](C(=O)N[C@@H](CCCNC(=N)N)C(=O)N[C@@H](CCCNC(=N)N)C(=O)O)[C@@H](C)CC)[C@@H](C)CC)[C@@H](C)CC)[C@@H](C)CC)[C@@H](C)CC [SEQ ID NO: 3] (H-IRRRIRRIRRRIRRIRRRIRR-OH; N-terminus and C-terminus assumed)
8 µg/mL (≈ 3.82 µM)	0.5 µg/mL (≈ 0.238 µM)	2 µg/mL (≈ 0.954 µM)	4 µg/mL (≈ 1.91 µM)	4 µg/mL (≈ 1.91 µM)	1 µg/mL (≈ 0.477 µM)	0.5 µg/mL (≈ 0.238 µM)	0.5 µg/mL (≈ 0.238 µM)	8 µg/mL (≈ 3.82 µM)	16 µg/mL (≈ 7.63 µM)	4 µg/mL (≈ 1.91 µM)	0.5 µg/mL (≈ 0.238 µM)	0.5 µg/mL (≈ 0.238 µM)	2 µg/mL (≈ 0.954 µM)	1 µg/mL (≈ 0.477 µM)	0.5 µg/mL (≈ 0.238 µM)	CC(C)[C@H](N)C(=O)N[C@@H](Cc1c[nH]c2ccccc12)C(=O)N[C@@H](CCCNC(=N)N)C(=O)N[C@@H](Cc1c[nH]c2ccccc12)C(=O)N[C@H](C(=O)N[C@@H](CCCNC(=N)N)C(=O)N[C@@H](CCCNC(=N)N)C(=O)N[C@H](C(=O)N[C@@H](Cc1c[nH]c2ccccc12)C(=O)N[C@@H](CCCNC(=N)N)C(=O)N[C@@H](Cc1c[nH]c2ccccc12)C(=O)N[C@H](C(=O)N[C@@H](CCCNC(=N)N)C(=O)N[C@@H](CCCNC(=N)N)C(=O)O)C(C)C)C(C)C)C(C)C [SEQ ID NO: 6] (H-VWRWVRRVWRWVRR-OH; N-terminus and C-terminus assumed)

The next lines start with the molecule.

Structure (SMILES)	MIC [1]	MIC [2]	MIC [3]	MIC [4]	MIC [5]	MIC [6]	MIC [7]	MIC [8]	MIC [9]	MIC [10]	MIC [11]	MIC [12]	MIC [13]	MIC [14]	MIC [15]	MIC [16]
CC[C@H](C)[C@H](N)C(=O)N[C@@H](CCCNC(=N)N)C(=O)N[C@@H](CCCNC(=N)N)C(=O)N[C@@H](CCCNC(=N)N)C(=O)N[C@@H](CCCNC(=N)N)C(=O)N[C@@H](CCCNC(=N)N)C(=O)N[C@@H](CCCNC(=N)N)C(=O)N[C@H](C(=O)N[C@@H](CCCNC(=N)N)C(=O)N[C@@H](CCCNC(=N)N)C(=O)N[C@@H](CCCNC(=N)N)C(=O)N[C@@H](CCCNC(=N)N)C(=O)N[C@@H](CCCNC(=N)N)C(=O)N[C@@H](CCCNC(=N)N)C(=O)O)[C@@H](C)CC [SEQ ID NO: 2] (H-IRRRRRRIRRRRRR-OH; N-terminus and C-terminus assumed)	>32 µg/mL	16 µg/mL (≈ 7.55 µM)	>32 µg/mL	>32 µg/mL	>32 µg/mL	16 µg/mL (≈ 7.55 µM)	8 µg/mL (≈ 3.78 µM)	16 µg/mL (≈ 7.55 µM)	8 µg/mL (≈ 3.78 µM)	>32 µg/mL	32 µg/mL (≈ 15.1 µM)	16 µg/mL (≈ 7.55 µM)	32 µg/mL (≈ 15.1 µM)	16 µg/mL (≈ 7.55 µM)	32 µg/mL (≈ 15.1 µM)	–
CC[C@H](C)[C@H](N)C(=O)N[C@@H](CCCNC(=N)N)C(=O)N[C@@H](CCCNC(=N)N)C(=O)N[C@H](C(=O)N[C@H](C(=O)N[C@@H](CCCNC(=N)N)C(=O)N[C@@H](CCCNC(=N)N)C(=O)N[C@H](C(=O)N[C@@H](CCCNC(=N)N)C(=O)N[C@@H](CCCNC(=N)N)C(=O)N[C@H](C(=O)N[C@H](C(=O)N[C@@H](CCCNC(=N)N)C(=O)N[C@@H](CCCNC(=N)N)C(=O)N[C@H](C(=O)N[C@@H](CCCNC(=N)N)C(=O)N[C@@H](CCCNC(=N)N)C(=O)N[C@H](C(=O)N[C@H](C(=O)N[C@@H](CCCNC(=N)N)C(=O)N[C@@H](CCCNC(=N)N)C(=O)O)[C@@H](C)CC)[C@@H](C)CC)[C@@H](C)CC)[C@@H](C)CC)[C@@H](C)CC)[C@@H](C)CC)[C@@H](C)CC)[C@@H](C)CC [SEQ ID NO: 4] (H-IRRIIRRIRRIIRRIRRIIRR-OH; N-terminus and C-terminus assumed)	16 µg/mL (≈ 5.5 µM)	8 µg/mL (≈ 2.75 µM)	8 µg/mL (≈ 2.75 µM)	8 µg/mL (≈ 2.75 µM)	32 µg/mL (≈ 11 µM)	8 µg/mL (≈ 2.75 µM)	4 µg/mL (≈ 1.37 µM)	4 µg/mL (≈ 1.37 µM)	4 µg/mL (≈ 1.37 µM)	8 µg/mL (≈ 2.75 µM)	16 µg/mL (≈ 5.5 µM)	4 µg/mL (≈ 1.37 µM)	8 µg/mL (≈ 2.75 µM)	4 µg/mL (≈ 1.37 µM)	4 µg/mL (≈ 1.37 µM)	8 µg/mL (≈ 2.75 µM)
CC(C)[C@H](N)C(=O)N[C@@H](Cc1c[nH]c2ccccc12)C(=O)N[C@@H](CCCNC(=N)N)C(=O)N[C@@H](Cc1c[nH]c2ccccc12)C(=O)N[C@H](C(=O)N[C@@H](CCCNC(=N)N)C(=O)N[C@@H](CCCNC(=N)N)C(=O)N[C@H](C(=O)N[C@@H](Cc1c[nH]c2ccccc12)C(=O)N[C@@H](CCCNC(=N)N)C(=O)N[C@@H](Cc1c[nH]c2ccccc12)C(=O)N[C@H](C(=O)N[C@@H](CCCNC(=N)N)C(=O)N[C@@H](CCCNC(=N)N)C(=O)N[C@H](C(=O)N[C@@H](Cc1c[nH]c2ccccc12)C(=O)N[C@@H](CCCNC(=N)N)C(=O)N[C@@H](Cc1c[nH]c2ccccc12)C(=O)N[C@H](C(=O)N[C@@H](CCCNC(=N)N)C(=O)N[C@@H](CCCNC(=N)N)C(=O)O)C(C)C)C(C)C)C(C)C)C(C)C)C(C)C [SEQ ID NO: 5] (H-VWRWVRRVWRWVRRVWRWVRR-OH; N-terminus and C-terminus assumed)	32 µg/mL (≈ 10.2 µM)	16 µg/mL (≈ 5.1 µM)	16 µg/mL (≈ 5.1 µM)	16 µg/mL (≈ 5.1 µM)	>32 µg/mL	16 µg/mL (≈ 5.1 µM)	8 µg/mL (≈ 2.55 µM)	8 µg/mL (≈ 2.55 µM)	16 µg/mL (≈ 5.1 µM)	>32 µg/mL	32 µg/mL (≈ 10.2 µM)	8 µg/mL (≈ 2.55 µM)	16 µg/mL (≈ 5.1 µM)	16 µg/mL (≈ 5.1 µM)	32 µg/mL (≈ 10.2 µM)	–
